{"source": "the C3SDB collision cross section collection", "data": [{"settings": "[M+H]+; instrument: TW; Major Mix IMS/Tof Calibration Kit (Waters)", "units": {"collision cross section (N2)": "Å²"}, "values": [{"smiles": "CNC(C)Cc1ccc2c(c1)OCO2", "note": "(stereo not drawn) [MDMA]", "collision cross section (N2)": 144.9}, {"smiles": "CC(C)NCC(O)c1ccc(NS(C)(=O)=O)cc1", "note": "(stereo not drawn) [Sotalol]", "collision cross section (N2)": 167}, {"smiles": "O=C1Cc2cc(CCN3CCN(c4nsc5ccccc45)CC3)c(Cl)cc2N1", "note": "[Ziprasidone]", "collision cross section (N2)": 192.6}, {"smiles": "Cc1cnc(C(=O)NCCc2ccc(S(=O)(=O)NC(=O)NC3CCCCC3)cc2)cn1", "note": "[Glipizide]", "collision cross section (N2)": 198.9}, {"smiles": "C/C=C1\\N(C)C(C)CC1(c1ccccc1)c1ccccc1", "note": "(stereo not drawn) [EDDP]", "collision cross section (N2)": 166.2}, {"smiles": "CCC1=C(C)CN(C(=O)NCCc2ccc(S(=O)(=O)NC(=O)NC3CCC(C)CC3)cc2)C1=O", "note": "(stereo not drawn) [Glimepiride]", "collision cross section (N2)": 216.6}, {"smiles": "CCC(=O)C(CC(C)N(C)C)(c1ccccc1)c1ccccc1", "note": "(stereo not drawn) [Methadone]", "collision cross section (N2)": 177.7}, {"smiles": "CCOC(=O)N1CCC(=C2c3ccc(Cl)cc3CCc3cccnc32)CC1", "note": "[Loratadine]", "collision cross section (N2)": 187.4}, {"smiles": "CN1CCN=C(c2ccccc2)c2cc(Cl)ccc21", "note": "[Medazepam]", "collision cross section (N2)": 160.8}, {"smiles": "CCCCc1oc2ccccc2c1C(=O)c1cc(I)c(OCCNCC)c(I)c1", "note": "[Amiodarone-M N-Desethyl]", "collision cross section (N2)": 219.8}, {"smiles": "COc1ccc2c3c1O[C@H]1C(=O)CC[C@H]4[C@@H](C2)N(C)CC[C@]314", "note": "[Hydrocodone]", "collision cross section (N2)": 167.4}, {"smiles": "c1ccc(C(c2ccccc2)C2CCCCN2)cc1", "note": "(stereo not drawn) [Desoxypipradrol]", "collision cross section (N2)": 164.1}, {"smiles": "CN(C)CCCN1c2ccccc2Sc2ccc(Cl)cc21", "note": "[Chlorpromazine]", "collision cross section (N2)": 170.6}, {"smiles": "Nc1ccc2c(c1)C(c1ccccc1Cl)=NCC(=O)N2", "note": "[Clonazepam-M 7-amino]", "collision cross section (N2)": 162.5}, {"smiles": "CC(C(=O)O)c1ccc(C(=O)c2ccccc2)s1", "note": "(stereo not drawn) [Tiaprofenic acid]", "collision cross section (N2)": 155.1}, {"smiles": "CCOc1ccc(NC(C)=O)cc1", "note": "[Phenacetin]", "collision cross section (N2)": 139.4}, {"smiles": "CC1=C(CC(=O)O)c2cc(F)ccc2/C1=C\\c1ccc(S(C)=O)cc1", "note": "(stereo not drawn) [Sulindac]", "collision cross section (N2)": 192.6}, {"smiles": "CN(C)CCc1c[nH]c2cccc(OP(=O)(O)O)c12", "note": "[Psilocybine]", "collision cross section (N2)": 157.3}, {"smiles": "CN(C)C(=O)Oc1cc(OC(=O)N(C)C)cc(C(O)CNC(C)(C)C)c1", "note": "(stereo not drawn) [Bambuterol]", "collision cross section (N2)": 189.7}, {"smiles": "Cc1nccn1CC1CCc2c(c3cccc(O)c3n2C)C1=O", "note": "(stereo not drawn) [Ondansetron-M 8-hydroxy]", "collision cross section (N2)": 173.7}, {"smiles": "CN1C[C@@H]2c3ccccc3Oc3ccc(Cl)cc3[C@H]2C1", "note": "[Asenapine]", "collision cross section (N2)": 167.6}, {"smiles": "Cc1cccc(CN2CCN(C(c3ccccc3)c3ccc(Cl)cc3)CC2)c1", "note": "(stereo not drawn) [Meclozine]", "collision cross section (N2)": 208.2}, {"smiles": "Cc1nc2n(c(=O)c1CCN1CCC(c3noc4cc(F)ccc34)CC1)CCCC2", "note": "[Risperidone]", "collision cross section (N2)": 205.5}, {"smiles": "CCCC1C(=O)N2C(N(C)C)=Nc3ccc(C)cc3N2C1=O", "note": "(stereo not drawn) [Apazone]", "collision cross section (N2)": 169.5}, {"smiles": "CN1C(=O)CC(=O)N(c2ccccc2)c2cc(Cl)ccc21", "note": "[Clobazam]", "collision cross section (N2)": 165.7}, {"smiles": "CC(C)(C(=O)O)c1ccc(C(O)CCCN2CCC(C(O)(c3ccccc3)c3ccccc3)CC2)cc1", "note": "(stereo not drawn) [Fexofenadine]", "collision cross section (N2)": 226.9}, {"smiles": "Cc1ncc2n1-c1ccc(Cl)cc1C(c1ccccc1F)=NC2", "note": "[Midazolam]", "collision cross section (N2)": 172.8}, {"smiles": "CO[C@]12CC[C@@]3(C[C@@H]1[C@](C)(O)C(C)(C)C)[C@H]1Cc4ccc(O)c5c4[C@@]3(CCN1CC1CC1)[C@H]2O5", "note": "[Buprenorphine]", "collision cross section (N2)": 209.7}, {"smiles": "C[C@]12Cc3cn[nH]c3C[C@@H]1CC[C@@H]1[C@@H]2CC[C@@]2(C)[C@H]1CC[C@]2(C)O", "note": "[Stanozolol]", "collision cross section (N2)": 188.1}, {"smiles": "CC[C@@H](c1cccc(O)c1)[C@@H](C)CN(C)C", "note": "[Tapentadol]", "collision cross section (N2)": 152.1}, {"smiles": "CN(C)CCc1c[nH]c2ccc(CS(=O)(=O)N3CCCC3)cc12", "note": "[Almotriptan]", "collision cross section (N2)": 175.8}, {"smiles": "CCOC(=O)[C@H](CCc1ccccc1)N[C@@H](C)C(=O)N1[C@H](C(=O)O)C[C@@H]2CCC[C@@H]21", "note": "[Ramipril]", "collision cross section (N2)": 197}, {"smiles": "CN1CCN(CCCN2c3ccccc3Sc3ccc(Cl)cc32)CC1", "note": "[Prochlorperazine]", "collision cross section (N2)": 183.7}]}]}
